GI50 and TGI data for 15 molecules are collected here from PubChem BioAssay (NCI).

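Results reflect a 48-hour exposure of cells in 96-well plates to compound at five concentrations. GI50 marks 50% less growth. TGI: concentration producing complete growth inhibition.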 A value given as a limit tells only on which side of the number the result lay.

What all share (assay): inhibition of tumour cell growth, NCI panel, 48 h
Test [1] concerns MALME-3M melanoma.
Test [2] deals with IGROV1 ovarian.
Test [3] concerns SF-539 CNS.
For test [4], the system named is DU-145 prostate.
Test [5] has as its system SK-MEL-2 melanoma.
Test [6] concerns OVCAR-5 ovarian.
The test system of test [7] is HS 578T breast.
Test [8] deals with M14 melanoma.
Test [9] concerns OVCAR-8 ovarian.
In test [10] the test system is SNB-19 CNS.

As for `N#Cc1cnc2cc(OC[C@H](O)CO)c(NC(=O)CC3CSSC3)cc2c1Nc1ccc(OCc2cccc(F)c2)c(Cl)c1`, the GI50 in [1] was 0.97 µM; in test [2], 0.446 µM; in test [3] it was 0.791 µM; in test [4], 0.637 µM; in [5], 0.638 µM; in test [6] it was 0.872 µM. Besides, the GI50 in test [7] was 0.447 µM; in test [8], 0.139 µM; in test [9], 1.02 µM; in [10], 0.447 µM. Also, the TGI in test [1] came to 2.06 µM; in test [2], 1.39 µM; in [3], 1.55 µM; in [4] it was 1.36 µM; in test [5], 1.4 µM; in test [6], 1.89 µM. Moreover, the TGI in test [7] was 1.69 µM; in test [8] it was 0.447 µM; in test [9], 2.28 µM; in [10] it was 1.43 µM.

`Nc1cc2cccc[n+]2c2cc(Cl)ccc12`: the GI50 is 2.38 µM in test [1]; 71.6 µM in test [2]; 14.6 µM in [3]; 30.7 µM in test [4]; 0.0664 µM in [5]; 25.7 µM in test [6]. Besides, the GI50 in test [7] is 16.6 µM; in [8], 19.3 µM; in test [9], 16.8 µM; in [10], 9.23 µM. Further, the TGI in test [1] is 11.7 µM; in [3], 83.2 µM; in [5], 18.4 µM; in [7] it was 51.4 µM; in test [8], 47.4 µM; in test [9] it was 57.9 µM. In test [10], this molecule had a TGI of 55.5 µM.

`CN(CCCN)CCCNc1nc2ccccc2c2[nH]c3ccccc3c12`: the GI50 in test [1] is 0.115 µM; in test [2] it was 0.329 µM; in test [3] it was 0.324 µM; in [4], 0.3 µM; in test [5], 0.306 µM; in [6] it was 0.18 µM. The GI50 is 0.0765 µM in test [7], 0.696 µM in [8], 0.0825 µM in test [9] and 0.229 µM in [10]. In addition, the TGI amounted to 0.325 µM in [1]; 1.21 µM in test [2]; 0.943 µM in test [3]; 10.3 µM in [4]; 0.835 µM in test [5]; 0.652 µM in [6]. The TGI stood at 0.334 µM in test [7], 1.93 µM in test [8], 0.496 µM in test [9] and 0.943 µM in test [10].

`ClCCn1c(CCl)nc2ccc(Cl)cc21`: the GI50 in test [1] was 0.46 µM; in test [2], 0.213 µM; in test [3], 1.44 µM; in test [4], 1.75 µM; in test [5], 1.65 µM; in [6], 1.21 µM. The GI50 in [7] is 2.06 µM; in [8], 0.466 µM; in [9], 0.338 µM; in test [10], 2.33 µM. Further, the TGI was determined as 1.89 µM in [1]; 0.476 µM in test [2]; 2.82 µM in [3]; 3.22 µM in test [4]; 3.6 µM in [5]; 2.77 µM in test [6]. The TGI worked out at 7.03 µM in test [7], 1.64 µM in [8], 1.6 µM in [9] and 7.19 µM in test [10].

In the case of `O=C(c1ccc(F)cc1)c1cccc(C(=O)c2ccc(F)cc2)n1`, the TGI in [1] was over 100 µM; in test [2], 79.3 µM; in [3], 56.3 µM; in test [4] it was over 100 µM; in test [5], 42.9 µM; in test [6] it was over 100 µM. Also, the TGI was over 94.8 µM in [7], over 100 µM in [8], over 100 µM in [9] and 54 µM in test [10].

For the molecule `CNC(=O)n1ccc2cc(Oc3ccnc(NC(=O)c4ccc(C5CCN(CCO)CC5)cc4)c3)c(OCCOC)cc21`, the GI50 in test [1] was 1.62 µM; in test [2] it was 5.65 µM; in [3], 1.12 µM; in [4] it was 11.2 µM; in test [5], 8.57 µM; in test [6], 8.43 µM. The GI50 in test [7] is 1.84 µM; in test [8], 1.98 µM; in [9] it was 4.51 µM; in test [10], 7.47 µM. For the same molecule, the TGI in test [1] amounted to 3.15 µM; in [2], 20.7 µM; in test [3], 2.56 µM; in test [4] it was 23.2 µM; in test [5], 23.2 µM; in [6], 22.7 µM. Also, the TGI in test [7] was found to be 7.37 µM; in test [8], 4.24 µM; in [9] it was 19.5 µM; in [10], 21.5 µM.

In the case of `CC/C=C\C=C/C(=O)N/C=C/CC1Cc2cccc(O)c2C(=O)O1` (stereo not given), the GI50 in test [1] is 41.5 µM; in test [2] it was 38 µM; in test [3], 13.9 µM; in test [4], 17.3 µM; in test [5], 22.9 µM; in test [6], 32.5 µM. For the same molecule, the GI50 in test [7] was 28.9 µM; in [8], 22.7 µM; in test [9], 30 µM; in test [10], 32.9 µM. Moreover, the TGI in test [1] is over 100 µM; in [2], over 100 µM; in [3], 37.1 µM; in [4], 52 µM; in [5] it was over 100 µM; in test [6] it was 99.4 µM. In addition, the TGI in test [7] was over 100 µM; in test [8], 64.2 µM; in test [9], over 100 µM; in test [10], over 100 µM.

With `O=CNc1c(Cl)cc2c(c1Cl)Cc1cc([N+](=O)[O-])ccc1-2`, the GI50 is 3.85 µM in test [1]; 0.923 µM in test [2]; 6.15 µM in test [3]; 7.72 µM in test [4]; 27.9 µM in [5]; 16.6 µM in test [6]. For the same molecule, the GI50 in test [7] is 1.77 µM; in test [8], 2.92 µM; in [9], 11.6 µM; in test [10], 16.5 µM. In addition, the TGI is over 100 µM in [1]; 38.7 µM in [2]; over 100 µM in [3]; over 49.9 µM in test [4]; over 86.6 µM in [5]; over 100 µM in test [6]. In addition, the TGI was 14.4 µM in test [7], over 54.6 µM in test [8], over 100 µM in test [9] and over 100 µM in test [10].

Take `CCCCOc1ccc(NC(N)=Nc2ccc(Cl)cc2)cc1`: the TGI in test [1] amounted to 8.34 µM; in [2] it was 21.3 µM; in test [3], 6.52 µM; in test [4], 13.6 µM; in [5], 9.73 µM; in test [6], 19.9 µM. In addition, the TGI in test [7] was 21 µM; in [8], 11.6 µM; in test [9] it was 25 µM; in [10] it was 20 µM.

With `CCN(CC)c1ccc(C(=C2C=CC(=[N+](CC)Cc3cccc(S(=O)(=O)O)c3)C=C2)c2ccc(N(CC)Cc3cccc(S(=O)(=O)O)c3)cc2)cc1`, the GI50 in test [1] was 5.52 µM; in test [2] it was 13.3 µM; in test [3] it was 3.57 µM; in test [4], 4.74 µM; in test [5] it was 10.5 µM; in test [6], 20.8 µM. For the same molecule, the GI50 in test [7] is 2.86 µM; in test [8] it was 4.93 µM; in test [9], 4.8 µM; in [10] it was 14.2 µM. The TGI in test [1] is 53.1 µM; in test [2] it was over 100 µM; in test [3] it was 23.3 µM; in test [4], over 100 µM; in test [5], over 92.2 µM; in test [6], over 100 µM. Besides, the TGI in test [7] is over 30.5 µM; in test [8], 39.2 µM; in [9] it was over 100 µM; in test [10], over 100 µM.

For `COc1c(CCC[P+](c2ccccc2)(c2ccccc2)c2ccccc2)cc2c(c1OC)OCO2`, the GI50 in test [1] is 0.599 µM; in [2], 1.02 µM; in test [3] it was 2.1 µM; in [4], 3.56 µM; in test [5] it was 3.03 µM; in test [6], 2.74 µM. Moreover, the GI50 in [7] was 1.72 µM; in test [8] it was 2.22 µM; in test [9], 2.66 µM; in test [10], 1.44 µM. Also, the TGI in [1] is 10.2 µM; in test [2], 10.7 µM; in [3], 13.7 µM; in test [4] it was over 100 µM; in test [5] it was 14.1 µM; in test [6] it was 81.2 µM. In addition, the TGI is 13.4 µM in [7], 19.2 µM in test [8], over 100 µM in test [9] and 12.9 µM in test [10].

In the case of `CC(C)(C)C#CC1=C(Br)C(=O)OC1`, the GI50 is 2.08 µM in test [1]; 4.97 µM in [2]; 2.74 µM in [3]; 1.53 µM in [4]; 12.6 µM in test [5]; over 26.9 µM in [7]. The GI50 was 3.61 µM in test [8], 2.54 µM in test [9] and 24.7 µM in test [10]. For the same molecule, the TGI in [1] turned out to be 4.91 µM; in [2], 23.2 µM; in [3], 11.1 µM; in [4], 3.31 µM; in test [5], 31.7 µM; in test [6], 0.608 µM. Also, the TGI in [7] is over 78.2 µM; in [8], 27 µM; in test [9] it was 12.7 µM; in test [10], over 100 µM.

In the case of `COC(=O)[C@]12CC[C@@H](C)[C@H](C)[C@@H]1C1=CC[C@@H]3[C@@]4(C)C[C@@H](OC(C)=O)[C@H](O)[C@@](C)(COC(C)=O)[C@@H]4[C@H](O)C[C@@]3(C)[C@]1(C)CC2`, the GI50 in test [1] was 2.36 µM; in test [2], 1.87 µM; in [3], 3.47 µM; in test [4], 3.48 µM; in [5], 2.84 µM; in test [6], 2.23 µM. The GI50 in test [7] was 2.95 µM; in [8], 1.96 µM; in test [9], 2.36 µM; in [10] it was 2.78 µM. Further, the TGI in [1] came out at 6.25 µM; in test [2] it was 4.81 µM; in test [3], 13.3 µM; in test [4], 11.9 µM; in [5], 7.39 µM; in test [6], 7.61 µM. The TGI in test [7] was 12.6 µM; in test [8], 5.09 µM; in [9], 5.91 µM.

With `C=CCc1c2c(c(OC)c3ccoc13)C(=O)/C(=C/c1ccccc1OC)O2`, the GI50 was 19.8 µM in test [1]; 5.27 µM in [2]; 5.45 µM in test [3]; 3.19 µM in test [4]; 6.06 µM in [5]; 3.57 µM in [6]. Moreover, the GI50 in test [7] was 5.29 µM; in [8], 8.19 µM; in test [9] it was 3.87 µM; in test [10] it was 5.83 µM. The TGI in test [1] was over 100 µM; in [2], over 100 µM; in test [3], 72.8 µM; in [4], over 100 µM; in test [5] it was over 100 µM; in [6], over 100 µM. Also, the TGI in test [7], in test [8], in test [9] and in test [10] was over 100 µM throughout.

Consider `CC1SC(c2c(Cl)cccc2Cl)N(NC(=O)c2[nH]c3ccc(F)cc3c2-c2ccccc2)C1=O` (stereo not given), for which the GI50 is 1.43 µM in [1]; 2.37 µM in [2]; 3.7 µM in [3]; 1.92 µM in test [4]; 3.29 µM in test [5]; 3.06 µM in test [6]. Also, the GI50 in test [7] is 1.93 µM; in [8] it was 3.96 µM; in [9], 1.7 µM; in [10], 2.17 µM. The TGI is 4.35 µM in [1]; 7.9 µM in [2]; 11.9 µM in [3]; 4.36 µM in test [4]; 15.6 µM in [5]; 21.3 µM in test [6]. Further, the TGI amounted to 4.38 µM in [7], 30.2 µM in test [8], 3.39 µM in test [9] and 5.82 µM in [10].
